Experimental data published in ChEMBL document CHEMBL1201862, “PubChem BioAssay data set” (2004).
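In this assay, cells in 96-well plates receive the compound at five concentrations for 48 hours. Endpoints are linearly interpolated between the surrounding concentrations. GI50 = concentration required for 50% inhibition of growth.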 Calls of active or inactive are those of the source. No stated cut-off is given here; in the data, active = GI50 up to about 1.1 µM and inactive = higher.

How the values were obtained:
Assay in all cases: NCI-60 cell line screen, 48 h
A549 = tested on: A549
BT-549 = tested on: BT-549
HCT-116 = tested on: HCT-116
HL-60 = tested on: HL-60
LOX IMVI = tested on: LOX IMVI
MDA-MB-435 = tested on: MDA-MB-435
MOLT-4 = tested on: MOLT-4
NCI-H226 = tested on: NCI-H226
NCI-H522 = tested on: NCI-H522
OVCAR-4 = tested on: OVCAR-4
OVCAR-5 = tested on: OVCAR-5
OVCAR-8 = tested on: OVCAR-8
SF-295 = tested on: SF-295
SK-MEL-28 = tested on: SK-MEL-28
SW-620 = tested on: SW-620
T47D = tested on: T47D
U-251 = tested on: U-251
UO-31 = tested on: UO-31
SF-539 = tested on: SF-539
SK-OV-3 = tested on: SK-OV-3

SMILES	GI50 (A549)	GI50 (BT-549)	GI50 (HCT-116)	GI50 (HL-60)	GI50 (LOX IMVI)	GI50 (MDA-MB-435)	GI50 (MOLT-4)	GI50 (NCI-H226)	GI50 (NCI-H522)	GI50 (OVCAR-4)	GI50 (OVCAR-5)	GI50 (OVCAR-8)	GI50 (SF-295)	GI50 (SK-MEL-28)	GI50 (SW-620)	GI50 (T47D)	GI50 (U-251)	GI50 (UO-31)	GI50 (SF-539)	GI50 (SK-OV-3)
CC(C)(SCc1ccccc1)C(N)C(=O)O (stereo unspecified)	> 100 µM (inactive)	> 100 µM (inactive)	> 100 µM (inactive)	> 100 µM (inactive)	> 100 µM (inactive)	> 100 µM (inactive)	> 100 µM (inactive)	> 100 µM (inactive)	> 100 µM (inactive)	> 100 µM (inactive)	> 100 µM (inactive)	> 100 µM (inactive)	> 100 µM (inactive)	> 100 µM (inactive)	> 100 µM (inactive)	> 100 µM (inactive)	> 100 µM (inactive)	> 100 µM (inactive)		
O=c1[nH]nc(-c2ccccc2)n1/N=C/c1cccnc1	> 100 µM (inactive)	39.2 µM (inactive)	54.3 µM (inactive)	50.2 µM (inactive)	> 100 µM (inactive)	64.7 µM (inactive)	64 µM (inactive)	57.9 µM (inactive)	61.8 µM (inactive)		92.5 µM (inactive)	> 100 µM (inactive)	> 100 µM (inactive)	> 100 µM (inactive)	> 100 µM (inactive)	31.6 µM (inactive)	76.4 µM (inactive)	> 100 µM (inactive)	40.4 µM (inactive)	
O=C(O)c1ccc(/C=N\N(CCO)C2=NCCN2)cc1	> 100 µM (inactive)	> 100 µM (inactive)	> 100 µM (inactive)	> 100 µM (inactive)	> 100 µM (inactive)	> 100 µM (inactive)	> 100 µM (inactive)	> 100 µM (inactive)		> 100 µM (inactive)	> 100 µM (inactive)	> 100 µM (inactive)	> 100 µM (inactive)	> 100 µM (inactive)	> 100 µM (inactive)	> 100 µM (inactive)	> 100 µM (inactive)	> 100 µM (inactive)	> 100 µM (inactive)	> 100 µM (inactive)
CC(=O)Nc1sccc1S(=O)(=O)c1ccc(Cl)cc1	> 100 µM (inactive)	> 100 µM (inactive)	> 100 µM (inactive)	> 100 µM (inactive)		> 100 µM (inactive)	> 100 µM (inactive)	> 100 µM (inactive)	> 100 µM (inactive)	> 100 µM (inactive)	> 100 µM (inactive)	> 100 µM (inactive)	> 100 µM (inactive)	> 100 µM (inactive)	> 100 µM (inactive)	> 100 µM (inactive)	> 100 µM (inactive)	> 100 µM (inactive)	> 100 µM (inactive)	> 100 µM (inactive)
COc1cc(/C=C/C=C2\CC(C)C/C(=C\C=C\c3ccc(O)c(OC)c3)C2=O)ccc1O (stereo unspecified)	5.11 µM (inactive)	8.61 µM (inactive)	15 µM (inactive)	7.35 µM (inactive)	12.4 µM (inactive)	8.32 µM (inactive)	0.964 µM (active)	14.8 µM (inactive)	0.522 µM (active)	4.83 µM (inactive)	14.4 µM (inactive)	11.5 µM (inactive)		6.92 µM (inactive)	12.7 µM (inactive)	7.48 µM (inactive)	12.1 µM (inactive)	5.06 µM (inactive)	22.1 µM (inactive)	4.83 µM (inactive)
C/C(=C1/N=C(c2ccccc2)OC1=O)c1ccc(C)cc1	> 100 µM (inactive)	> 100 µM (inactive)	> 100 µM (inactive)	45.3 µM (inactive)	> 100 µM (inactive)	> 100 µM (inactive)	> 100 µM (inactive)	> 100 µM (inactive)	> 100 µM (inactive)	> 100 µM (inactive)	> 100 µM (inactive)	> 100 µM (inactive)	> 100 µM (inactive)	> 100 µM (inactive)	> 100 µM (inactive)	> 100 µM (inactive)	> 100 µM (inactive)		> 100 µM (inactive)	> 100 µM (inactive)
C/C(=N\Nc1nc2ccccc2o1)c1ccc2ccccc2n1	4.2 µM (inactive)	20.7 µM (inactive)	2.55 µM (inactive)	2.33 µM (inactive)	2.86 µM (inactive)	6.35 µM (inactive)	1.97 µM (inactive)		1.94 µM (inactive)	1.3 µM (inactive)	2.93 µM (inactive)	2.89 µM (inactive)	3.72 µM (inactive)	3.96 µM (inactive)	4.07 µM (inactive)	0.279 µM (active)	3.21 µM (inactive)	2.09 µM (inactive)	7.36 µM (inactive)	23.1 µM (inactive)
